{
  "source": "paper PMC5155152",
  "about": "“A diverse intrinsic antibiotic resistome from a cave bacterium” (Nature Communications, 2016)",
  "type_in_all_cases": "biochemical, Paenibacillus sp. LC231",
  "key": {"CpaA": {"tested_on": "T1, CpaA", "T1 construct": "recombinant in E. coli BL21(DE3), pET vector, Ni-NTA purified", "assay": "spectrophotometric steady-state kinetics", "details": "5 μM capreomycin, 50 mM HEPES pH 7.5, 150 mM NaCl, 0.1 mM EDTA, room temperature"}, "AAC(6′)-34": {"tested_on": "T2, AAC(6′)-34", "T2 construct": "recombinant in E. coli BL21(DE3), pET vector, Ni-NTA purified", "assay": "CoA liberation with DTDP, steady-state kinetics", "details": "35 μM sisomicin, 25 mM MES pH 6.0, 1 mM EDTA, 25 °C"}, "VatI": {"tested_on": "T3, VatI", "T3 construct": "recombinant in E. coli BL21(DE3), pET vector, Ni-NTA purified", "assay": "steady-state kinetics", "details": "100 μM flopristin, 50 mM HEPES pH 7.5, 150 mM NaCl, 0.1 mM EDTA, 25 °C"}},
  "data": [
    {"smiles": "CC(=O)SCCNC(=O)CCNC(=O)[C@H](O)C(C)(C)COP(=O)(O)OP(=O)(O)OC[C@H]1O[C@@H](n2cnc3c(N)ncnc32)[C@H](O)[C@@H]1OP(=O)(O)O", "note": "[acetyl-CoA]", "values": [
      {"measurement": "Km", "setting": "CpaA", "value": "39 ± 3", "unit": "µM"},
      {"measurement": "Km", "setting": "AAC(6′)-34", "value": "220 ± 26", "unit": "µM"},
      {"measurement": "Km", "setting": "VatI", "value": "48 ± 3", "unit": "µM"}
    ]}
  ]
}
